Patent US10316035B2, “Triazolopyridine inhibitors of myeloperoxidase” (BRISTOL-MYERS SQUIBB COMPANY, priority 2015, dated 2019)
pIC50: −log10 of the molar value. Where a name gives a salt, the structure may show the parent alone.

Biological target: T1, myeloperoxidase (MPO) (Homo sapiens, UniProt P05164)
T1 sequence (P05164 49-745): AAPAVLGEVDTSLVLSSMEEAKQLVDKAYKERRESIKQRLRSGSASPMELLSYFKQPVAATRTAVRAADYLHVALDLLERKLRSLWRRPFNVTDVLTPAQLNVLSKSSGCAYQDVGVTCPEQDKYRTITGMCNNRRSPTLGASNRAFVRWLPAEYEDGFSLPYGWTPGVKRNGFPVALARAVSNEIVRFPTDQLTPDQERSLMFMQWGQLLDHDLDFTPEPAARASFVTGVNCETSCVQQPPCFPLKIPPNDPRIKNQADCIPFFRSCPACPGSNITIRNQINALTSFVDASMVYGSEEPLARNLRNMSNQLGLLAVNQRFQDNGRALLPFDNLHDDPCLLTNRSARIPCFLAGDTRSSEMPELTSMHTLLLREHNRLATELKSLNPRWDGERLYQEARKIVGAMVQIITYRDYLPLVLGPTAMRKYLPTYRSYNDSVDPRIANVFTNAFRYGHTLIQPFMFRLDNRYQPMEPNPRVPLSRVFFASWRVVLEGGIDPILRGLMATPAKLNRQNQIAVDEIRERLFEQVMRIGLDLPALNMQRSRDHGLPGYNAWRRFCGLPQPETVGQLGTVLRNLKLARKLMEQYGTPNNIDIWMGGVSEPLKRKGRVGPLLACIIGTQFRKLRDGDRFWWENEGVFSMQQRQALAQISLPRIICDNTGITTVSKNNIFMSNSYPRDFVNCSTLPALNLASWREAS
Experiment: MPO peroxidation assay (Amplex Red assay)
Type: biochemical
Settings: not given
Summary of the method: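 Peroxidase turnover of Amplex Red to fluorescent resorufin (Ex 535/Em 590 nm) was followed for 15 min in 100 mM KPi, pH 7.4, after 10 min room-temperature preincubation of compound with 200 pM enzyme plus 40 nM H2O2. The substrate mix contained 200 μM Amplex Red and 10 mM H2O2. IC50s came from linear-phase rates (180–540 s) fitted with a Hill equation.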

Row | pIC50 | SMILES
1 | 7.00 to 9.00 | Nc1cc(OCc2cccc(-c3cccc(F)c3)c2)c2nn[nH]c2n1 [Example 91, 7-((3′-Fluorobiphenyl-3-yl)methoxy)-3H-[1,2,3]triazolo[4,5-b]pyridin-5-amine]

Same assay, conditions: MPO peroxidation, potency range class; read-out: Amplex Red IC50

Row | SMILES | pIC50
2 | CC(Oc1cc(N)nc2[nH]nnc12)c1ccc(OC(F)(F)F)cc1 (centres unmarked) [Example 142, 7-(1-(4-(Trifluoromethoxy)phenyl)ethoxy)-3H-[1,2,3]triazolo[4,5-b]pyridin-5-amine] | 5.00 to 6.00
3 | Cc1cn(-c2ccc(COc3cc(N)nc4[nH]nnc34)c(OC(F)(F)F)c2)cn1 [Example 273, 7-((4-(4-methyl-1H-imidazol-1-yl)-2-(trifluoromethoxy)benzyl)oxy)-3H-[1,2,3] triazolo[4,5-b]pyridin-5-amine] | 6.00 to 7.00
4 | Nc1cc(OCc2ccccc2OCC(=O)NCC2CC2)c2nn[nH]c2n1 [Example 37, 2-(2-((5-Amino-3H-[1,2,3]triazolo[4,5-b]pyridin-7-yloxy)methyl)phenoxy)-N-(cyclopropylmethyl)acetamide] | 6.00 to 7.00
5 | CCS(=O)(=O)c1ccc(Cl)cc1COc1cc(N)nc2[nH]nnc12 [Example 227, 7-((5-Chloro-2-(ethylsulfonyl)benzyl)oxy)-3H-[1,2,3]triazolo[4,5-b]pyridin-5-amine, TFA] | 6.00 to 7.00
6 | Nc1cc(OCc2ccc(-n3ccccc3=O)cc2OC(F)(F)F)c2nn[nH]c2n1 [Example 256, 1-(4-(((5-amino-3H-[1,2,3]triazolo[4,5-b]pyridin-7-yl)oxy)methyl)-3-(trifluoromethoxy)phenyl) pyridin-2(1H)-one] | 6.00 to 7.00
7 | Nc1cc(OC(c2ccccc2)C(F)F)c2nn[nH]c2n1 (racemic) [Example 138, 7-(2,2-Difluoro-1-phenylethoxy)-3H-[1,2,3]triazolo[4,5-b]pyridin-5-amine] | 6.00 to 7.00
8 | COc1c(F)cc(F)cc1-c1ccc(COc2cc(N)nc3[nH]nnc23)cc1 [Example 117, 7-((3′,5′-Difluoro-2′-methoxybiphenyl-4-yl)methoxy)-3H-[1,2,3]triazolo[4,5-b]pyridin-5-amine] | 6.00 to 7.00
9 | CNC(=O)CNC(=O)c1ccc(Cl)c(COc2cc(N)nc3[nH]nnc23)c1 [Example 187, 3-((5-amino-3H-[1,2,3]triazolo [4,5-b]pyridin-7-yloxy)methyl)-4-chloro-N-(2-(methylamino)-2-oxoethyl)benzamide] | 6.00 to 7.00
10 | Cc1nccn1-c1cccc(COc2cc(N)nc3[nH]nnc23)c1 [Example 7, 7-(3-(2-Methyl-1H-imidazol-1-yl)benzyloxy)-3H-[1,2,3]triazolo[4,5-b]pyridin-5-amine] | 6.00 to 7.00
11 | COc1cccc(Cl)c1-c1cccc(COc2cc(N)nc3[nH]nnc23)c1 [Example 124, 7-((2′-Chloro-6′-methoxybiphenyl-3-yl)methoxy)-3H-[1,2,3]triazolo[4,5-b]pyridin-5-amine] | 6.00 to 7.00
12 | CN(C)CCN(C)C(=O)c1ccc(COc2cc(N)nc3[nH]nnc23)c(Cl)c1 [Example 222, 4-((5-amino-3H-[1,2,3]triazolo[4,5-b]pyridin-7-yloxy)methyl)-3-chloro-N-(2-(dimethylamino)ethyl)-N-methylbenzamide] | 6.00 to 7.00
13 | Cc1ccn(-c2cccc(COc3cc(N)nc4[nH]nnc34)c2)n1 [Example 85, 7-(3-(3-Methyl-1H-pyrazol-1-yl)benzyloxy)-3H-[1,2,3]triazolo[4,5-b]pyridin-5-amine] | 6.00 to 7.00
14 | COc1cccc(COc2cc(N)nc3[nH]nnc23)c1 [Example 127, 7-((3-Methoxybenzyl)oxy)-3H-[1,2,3]triazolo[4,5-b]pyridin-5-amine] | 6.00 to 7.00
15 | Nc1cc(OCc2ccc(-n3cncn3)cc2OC(F)(F)F)c2nn[nH]c2n1 [Example 267, 7-((4-(1H-1,2,4-triazol-1-yl)-2-(trifluoromethoxy)benzyl)oxy)-3H-[1,2,3]triazolo[4,5-b]pyridin-5-amine] | 7.00 to 9.00
16 | CN(CC(N)=O)C(=O)c1ccc(Cl)c(COc2cc(N)nc3[nH]nnc23)c1 [Example 189, N-(2-amino-2-oxoethyl)-3-((5-amino-3H-[1,2,3]triazolo[4,5-b]pyridin-7-yloxy)methyl)-4-chloro-N-methylbenzamide] | 6.00 to 7.00
17 | COc1cccc(-c2cccc(COc3cc(N)nc4[nH]nnc34)c2)c1 [Example 113, 7-((3′-Methoxybiphenyl-3-yl)methoxy)-3H-[1,2,3]triazolo[4,5-b]pyridin-5-amine] | 7.00 to 9.00
18 | Nc1cc(OCc2ccc(C(=O)NCCc3c[nH]cn3)cc2Cl)c2nn[nH]c2n1 [Example 224, N-(2-(1H-imidazol-4-yl)ethyl)-4-((5-amino-3H-[1,2,3]triazol[4,5-b]pyridin-7-yloxy)methyl)-3-chlorobenzamide] | 7.00 to 9.00
19 | CS(=O)(=O)c1cc(Cl)cc(COc2cc(N)nc3[nH]nnc23)c1 [Example 44, 7-(3-Chloro-5-(methylsulfonyl)benzyloxy)-3H-[1,2,3]triazolo[4,5-b]pyridin-5-amine] | 6.00 to 7.00

Other lines, results leading:

Row | pIC50 | SMILES
20 | 7.00 to 9.00 | Nc1cc(OCc2ccc(-c3cncc(F)c3)cc2OC(F)(F)F)c2nn[nH]c2n1 [Example 308, 7-((4-(5-fluoropyridin-3-yl)-2-(trifluoromethoxy)benzyl)oxy)-3H-[1,2,3] triazolo[4,5-b]pyridin-5-amine]
21 | 7.00 to 9.00 | N#Cc1cc(-c2ccc(CN)nc2)ccc1COc1cc(N)nc2[nH]nnc12 [Example 328, 2-(((5-amino-3H-[1,2,3]triazolo[4,5-b]pyridin-7-yl)oxy)methyl)-5-(6-(aminomethyl)pyridin-3-yl)benzonitrile]
22 | 7.00 to 9.00 | COc1ccc(-n2cncn2)cc1COc1cc(N)nc2[nH]nnc12 [Example 83, 7-(2-Methoxy-5-(1H-1,2,4-triazol-1-yl)benzyloxy)-3H-[1,2,3]triazolo[4,5-b]pyridin-5-amine]
23 | 7.00 to 9.00 | Nc1cc(OCc2cccc(-c3cncc(F)c3)c2)c2nn[nH]c2n1 [Example 121, 7-(3-(5-Fluoropyridin-3-yl)benzyloxy)-3H-[1,2,3]triazolo[4,5-b]pyridin-5-amine]
24 | 7.00 to 9.00 | Cn1nccc1-c1cccc(COc2cc(N)nc3[nH]nnc23)c1 [Example 78, 7-(3-(1-Methyl-1H-pyrazol-5-yl)benzyloxy)-3H-[1,2,3]triazolo[4,5-b]pyridin-5-amine]
25 | 7.00 to 9.00 | N#Cc1ccc(-c2cccc(COc3cc(N)nc4[nH]nnc34)c2)cc1 [Example 101, 3′-((5-Amino-3H-[1,2,3]triazolo[4,5-b]pyridin-7-yloxy)methyl)biphenyl-4-carbonitrile]
26 | 7.00 to 9.00 | CN1CCN(c2ncc(-c3ccc(COc4cc(N)nc5[nH]nnc45)c(C#N)c3)cn2)CC1 [Example 321, 2-(((5-amino-3H-[1,2,3]triazolo[4,5-b]pyridin-7-yl)oxy)methyl)-5-(2-(4-methylpiperazin-1-yl)pyrimidin-5-yl)benzonitrile]
27 | 7.00 to 9.00 | Nc1cc(OCc2cccc(-c3ccc(F)cc3)c2)c2nn[nH]c2n1 [Example 95, 7-((4′-Fluorobiphenyl-3-yl)methoxy)-3H-[1,2,3]triazolo[4,5-b]pyridin-5-amine]
28 | 7.00 to 9.00 | Nc1cc(OCc2cccc(-c3cccnc3)c2)c2nn[nH]c2n1 [Example 103, 7-(3-(Pyridin-3-yl)benzyloxy)-3H-[1,2,3]triazolo[4,5-b]pyridin-5-amine]
29 | 7.00 to 9.00 | Nc1ccc(-c2ccc(COc3cc(N)nc4[nH]nnc34)c(OC(F)(F)F)c2)cn1 [Example 291, 7-((4-(6-aminopyridin-3-yl)-2-(trifluoromethoxy)benzyl)oxy)-3H-[1,2,3]triazolo[4,5-b] pyridin-5-amine]
30 | 7.00 to 9.00 | N#Cc1cc(-c2ccc(F)nc2)ccc1COc1cc(N)nc2[nH]nnc12 [Example 330, 2-(((5-amino-3H-[1,2,3]triazolo[4,5-b]pyridin-7-yl)oxy)methyl)-5-(6-fluoropyridin-3-yl)benzonitrile]
31 | 7.00 to 9.00 | Nc1cc(OCc2ccc(C(=O)NCc3ccccc3Cl)cc2Cl)c2nn[nH]c2n1 [Example 214, 4-((5-amino-3H-[1,2,3]triazolo[4,5-b]pyridin-7-yloxy)methyl)-3-chloro-N-(2-chlorobenzyl)benzamide]
32 | 7.00 to 9.00 | Nc1cc(OCc2cccc(Br)c2F)c2nn[nH]c2n1 [Example 62, 7-(3-Bromo-2-fluorobenzyloxy)-3H-[1,2,3]triazolo[4,5-b]pyridin-5-amine]
33 | 7.00 to 9.00 | Nc1cc(OCc2cc(OC(F)F)ccc2F)c2nn[nH]c2n1 [Example 32, 7-(5-(Difluoromethoxy)-2-fluorobenzyloxy)-3H-[1,2,3]triazolo[4,5-b]pyridin-5-amine]
34 | 7.00 to 9.00 | Nc1cc(OCc2ccc(-c3ccc(Cl)nc3)cc2OC(F)(F)F)c2nn[nH]c2n1 [Example 302, 7-((4-(6-chloropyridin-3-yl)-2-(trifluoromethoxy)benzyl)oxy)-3H-[1,2,3] triazolo[4,5-b]pyridin-5-amine]
35 | 7.00 to 9.00 | Nc1cncc(-c2ccc(F)c(COc3cc(N)nc4[nH]nnc34)c2Cl)c1 [Example 343, 7-((3-(5-aminopyridin-3-yl)-2-chloro-6-fluorobenzyl)oxy)-3H-[1,2,3]triazolo[4,5-b] pyridin-5-amine]
